Test results as given in patent publication US8293266B2, “Paromomycin-supplemented feed stuff for turkey and use thereof for prophylaxis of histomoniasis, reduction of the horizontal spreading of histomoniasis, and for improved weight gain and feed conversion” (Huvepharma AD, priority 2007, dated 2012).
Entries after “also recorded” stand apart in the source; their conditions may differ.

What was measured:
histomoniasis [1] = conditions: use through the whole growth cycle; cited from earlier work
[2] = tested on: Histomonas meleagridis strain HNA.CO.A.L1; assay: Example 1: turkeys inoculated intracloacally with Histomonas meleagridis, mortality and lesions; format: in vivo, turkey; conditions: low dose (500 ppm), mortality
histomoniasis [3] = conditions: cited from earlier work
[4] = tested on: Histomonas meleagridis strain HNA.CO. A.L1; assay: Example 2: intracloacal Histomonas meleagridis challenge, seeder and contact birds, mortality and lesions; format: in vivo, turkey; conditions: lowest dose (250 ppm paromomycin sulphate), seeder birds mortality
histomoniasis [5] = conditions: 200 and 400 ppm in broilers; cited from earlier work

CC[C@@H](C(=O)[C@@H](C)[C@@H](O)[C@H](C)[C@@H]1O[C@@H]([C@@H](CC)C(=O)O)CC[C@@H]1C)[C@H]1O[C@]2(C=C[C@@H](O)[C@]3(CC[C@@](C)([C@H]4CC[C@](O)(CC)[C@H](C)O4)O3)O2)[C@H](C)C[C@@H]1C [salinomycin]
effect with respect to histomoniasis (histomoniasis [1]): no effect

NC[C@@H]1O[C@H](O[C@H]2[C@@H](O)[C@H](O[C@@H]3[C@@H](O)[C@H](N)C[C@H](N)[C@H]3O[C@H]3O[C@H](CO)[C@@H](O)[C@H](O)[C@H]3N)O[C@@H]2CO)[C@H](N)[C@@H](O)[C@@H]1O [paromomycin]
protection compared to the infected untreated group [2]: significant protection
side effects due to the use of paromomycin (histomoniasis [3]; 1000-2000 ppm in feed (dosage exceeding 1000 ppm)): certain toxicity effects; also recorded: lesions and hypertrophy of the liver
mortality of infected birds (histomoniasis [3]; fed continuously at 1000-2000 ppm in feed): reduced the mortality of infected birds
protection to infection [4]: significant protection
effect on mortality and lesion scoring (histomoniasis [5]): no effect on both mortality and lesion scoring
use in-vivo as chemotherapeutic agent in broiler chickens (histomoniasis [5]): ineffective

N#CC(c1ccc(Cl)cc1)c1c(Cl)cc(-n2ncc(=O)[nH]c2=O)cc1Cl (stereo not drawn) [diclasuril]
effect with respect to histomoniasis (histomoniasis [1]): no effect

CC[C@@]1([C@@H]2O[C@@H]([C@H]3O[C@@](O)(CO)[C@H](C)C[C@@H]3C)C[C@@H]2C)CC[C@H]([C@]2(C)CC[C@]3(C[C@H](O)[C@@H](C)[C@@H]([C@@H](C)[C@@H](OC)[C@H](C)C(=O)O)O3)O2)O1 [monensin]
effect with respect to histomoniasis (histomoniasis [1]): no effect
